These results are taken from US5656591A, “Antimicrobial agents and method for treating products therewith” (Morinaga Milk Industry Co., Ltd., priority 1992, dated 1997).

Assay [1] has as its system Staphylocoecus aureus (JCM-2151). Kind of assay: Viability assay in Mueller-Hington Broth. It counts as cell-based, Staphylococcus aureus. The procedure:
(§1) Precultures of test microorganisms to be used in the tests described hereunder were prepared in such a manner that: from the frozen preservation of dispersions of test microorganisms, a loop of the respective strains of the microorganisms were taken out and spread onto TRI PETIT CASE SOYA AGAR MEDIA (by BBL Company), and incubated at 37° C. for 16 hours; the colonies grown on the culture media were scraped by a platinum loop and cultivated in 2.1% Mueller-Hington Broth (by Difco Company) respectively for several hours at 37° C. The resultant microbial cultures at logarithmic phase in 3×10^8 /ml of microbial concentration were used as the precultures.
(§2) The test media to be used in the respective tests were prepared in such a manner that: aqueous solutions in a predetermined concentration of the lactoferrin hydrolysates or the lactoferrin-derived antimicrobial peptides of (1) and (2) in Preparation of Samples (supra), as well as the samples of antibiotics of (3) (supra) were respectively sterilized with filters (by Advantec Company); then a quantity of the resultant solutions of respective samples were selectively added to a quantity of basal medium (Mueller-Hington Broth) prepared in the eventual concentration of 2.1%, thereby combinations of the samples and their concentrations in the respective test media were adjusted as specified in the respective tests. […]

For a further assay, the system named is Escherichia coli 0-111. Kind of assay: Test for antimicrobial activity (turbidity): growth inhibiting concentration of antibiotics. Type of assay: cell-based. The protocol:
as §1
(§3) The test media to be used in the respective tests were prepared in such a manner that: aqueous solutions in a predetermined concentration of the lactoferrin hydrolysates or the lactoferrin-derived antimicrobial peptides of (1) and (2) in Preparation of Samples (supra), as well as the samples of antibiotics of (3) (supra) were respectively sterilized with filters (by Advantec Company); then a quantity of the resultant solutions of respective samples were selectively added to a quantity of basal medium (Mueller-Hington Broth) prepared in the eventual concentration of 2.1%, thereby combinations of the samples and their concentrations in the respective test media were adjusted as specified in the respective tests.
(§4) Antimicrobial activity was examined as follows: A quantity of the respective precultures prepared in (1) immediately above was diluted with 2.1% Mueller-Hington Broth to result in 2×10^6 /ml of microbial concentration; 100 μl aliquots of the resultant liquid were added to 100 μl aliquots of one of the test media as specified in the respective test; the resultant media were incubated at 37° C. for 16 hours; then the turbidity of the resultant culture broths were measured thereby antimicrobial activity was examined.
(§5) Components in the test and control media and eventual concentrations thereof were adjusted by properly combining 0 mg, 0.4 mg, 1.6 mg and 6.4 mg/ml of lactoferrin hydrolysate of (1) (in Preparation of Samples, supra). or 0 μg, 16 μg, 64 μg, and 256 μg/ml of lactoferrin-derived antimicrobial peptides of (2) (in Preparation of Samples, supra), and 0 μg, 0.01 μg, 0.1 μg, 1 μg, and 10 μg/ml of antibiotics of (3) (supra), then antimicrobial activity of the combined use of the components against Escherichia coli 0-111 and Staphylococcus aureus (JCM2151) as well as growth inhibiting concentrations of the antibiotics were investigated.

Assay [2] deals with Staphylococcus aureus JCM2151. The assay is described as above. Type of assay: cell-based. The settings on record: for MIC: Staphylococcus aureus. The protocol:
as §1, §3, §4, §5

Assay [3] deals with Staphylococcus aureus (JCM-2151). Put plainly: Viability assay (survival rate) in cow's milk medium. Type of assay: cell-based. The arrangement: key to survival rate: % of control colony count 1 (control colony count 2 at peptide 0). The settings on record: for antimicrobial activity of the compound added without antimicrobial peptide or lactoferrin hydrolysate (in words): compound alone; for effect of the coexisting compound on the antimicrobial activity of the antimicrobial peptide (in words): with antimicrobial peptide Seq. ID No. 26. The protocol: The colonies grown on the culture medium were scraped by a platinum loop and cultivated in 1% peptone (by Difco Company) culture medium for several hours at 37° C., and the resultant microbial culture at logarithmic phase was used as the preculture in a serial concentration of 3×10^8 /ml.
A quantity of the resultant solutions of the samples were selectively mixed with a quantity of the basal medium, thereby test media for the respective tests were prepared in the combinations and eventual concentrations as specified in the respective tests.
Utilizing the samples (5), (7), (8), (9), (10), (14), (15), (17), (18) and (19), test media were prepared in the same manner as in the preparation of the test media containing sample (3) and the like, except that the aqueous solution (in the cases of samples (5) and (7), aqueous suspensions) were not dealt with sterilization filters.
To 2 ml aliquots of test media prepared in (3-1) (supra), […] aliquots of the preculture of Staphylococcus aureus prepared in (1) (2. Method, supra) were added, then incubated at 37° C. for 1 hour, 200 μl aliquots of the resultant cultures were taken out and diluted with 1% peptone solution in a series of 10^n respectively, 110 μl aliquots of the resultant dilution series were spread onto plates of standard agar culture medium, and after incubation at 37° C. for 24 hours the number of colonies grown on the plates were counted (Test. Colony Count).
Control coloney counts 1 were determined in the same manner as in the determination of the test coloney counts, except that […] aliquots of the preculture of Staphylococcus aureus prepared in (1) (2. Method, supra) were added to 2 ml aliquots of the respective control media 1 prepared in (3-2) (supra). Furthermore, control coloney counts 2 were determined in the same manner as in the determination of the test coloney counts, except that […] aliquots of the preculture of Staphylococcus aureus prepared in (1) (supra) were added to 2 ml aliquots of the respective control media 1 prepared in (3-2) (supra).
Survival rate 1=(Test Colony Count/Control Colony Count 1)×100
Survival rate 2=(Control Colony Count 2/Control Colony Count 1)×100
(Note: In the tables shown hereinafter, vulues of survival rate 2 are indicated in the row where the concentration of antimicrobial peptide or lactoferrin hydrolysate is 0.)

Assay [4] has as its system methicillin-resistant Staphylococcus aureus (wild type). Put plainly: Viability assay in Mueller-Hington Broth on antibiotics-resistant microorganism. Type of assay: cell-based. The procedure: as §1, §2
Setting [5] is: Escherichia coli, 0111, antimicrobial peptide (Seq. ID No. 27) 0 μg/ml.
Setting [6] is: Escherichia coli, 0111, antimicrobial peptide (Seq. ID No. 27) 16 μg/ml.
Where [7] appears, read: Escherichia coli, 0111, antimicrobial peptide (Seq. ID No. 27) 64 μg/ml.
The mark [8] stands for this setting: Escherichia coli, 0111, antimicrobial peptide (Seq. ID No. 27) 256 μg/ml.
Setting [9] is: lactoferrin hydrolysate 0 mg/ml.
[10] abbreviates: lactoferrin hydrolysate 0.4 mg/ml.
Setting [11] is: lactoferrin hydrolysate 1.6 mg/ml.
[12] abbreviates: lactoferrin hydrolysate 6.4 mg/ml.
The mark [13] stands for this setting: JCM2151, antimicrobial peptide (Seq. ID No. 27) 0 μg/ml.
[14] abbreviates: JCM2151, antimicrobial peptide (Seq. ID No. 27) 16 μg/ml.
Setting [15] is: JCM2151, antimicrobial peptide (Seq. ID No. 27) 64 μg/ml.
Setting [16] is: JCM2151, antimicrobial peptide (Seq. ID No. 27) 256 μg/ml.

In general, MIC refers to the lowest concentration found to suppress growth. Regarding `[H]/N=C(/N)N[C@H]1[C@H](O)[C@@H](O)[C@H](O[C@@H]2O[C@@H](C)[C@](O)(C=O)[C@H]2O[C@@H]2O[C@@H](CO)[C@H](O)[C@@H](O)[C@@H]2NC)[C@@H](N/C(N)=N\[H])[C@@H]1O` [streptomycin], in assay [1] (Test 25: streptomycin 1 μg/ml alone (control row)), the survival rate stood at 12.4%. Further, the MIC was over 1 µg/mL in the assay with Escherichia coli 0-111 (setting [5]); over 1 µg/mL in the assay with Escherichia coli 0-111 (setting [6]); 1 µg/mL in the assay with Escherichia coli 0-111 (setting [7]); 0.01 µg/mL in the assay on Escherichia coli 0-111 (setting [8]); over 1 µg/mL in assay [2] (setting [13]); over 1 µg/mL in assay [2] (setting [14]). The MIC stood at 1 µg/mL in assay [2] (setting [15]) and 0.01 µg/mL in assay [2] (setting [16]). Also, the “Growth inhibiting Concentration of antibiotics” value (“Growth inhibiting Concentration” for short) in the assay on Escherichia coli 0-111 (setting [9]) is over 1 µg/mL; in the assay on Escherichia coli 0-111 (setting [10]) it was over 1 µg/mL; in the assay with Escherichia coli 0-111 (setting [11]) it was 1 µg/mL; with Escherichia coli 0-111 (setting [12]), 0.01 µg/mL; in assay [2] (setting [9]) it was over 1 µg/mL; in assay [2] (setting [10]) it was over 1 µg/mL. In addition, the results for the “Growth inhibiting Concentration” value in assay [2] (setting [11]) and in assay [2] (setting [12]) were 1 µg/mL and 0.1 µg/mL, respectively.
Consider `CC1(C)S[C@@H]2[C@H](NC(=O)Cc3ccccc3)C(=O)N2[C@H]1C(=O)O` [penicillin], for which the survival rate in assay [1] (Test 25: penicillin 1 μg/ml alone (control row)) is on record as 14.2%. Besides, the MIC in the assay on Escherichia coli 0-111 (setting [5]) is over 1 µg/mL; with Escherichia coli 0-111 (setting [6]), over 1 µg/mL; with Escherichia coli 0-111 (setting [7]), 1 µg/mL; in the assay on Escherichia coli 0-111 (setting [8]) it was 0.1 µg/mL; in assay [2] (setting [13]), over 1 µg/mL; in assay [2] (setting [14]) it was 1 µg/mL. Further, the MIC in assay [2] (setting [15]) stood at 1 µg/mL; in assay [2] (setting [16]), 0.1 µg/mL. The “Growth inhibiting Concentration” value is over 1 µg/mL in the assay with Escherichia coli 0-111 (setting [9]); 1 µg/mL in the assay with Escherichia coli 0-111 (setting [10]); 1 µg/mL with Escherichia coli 0-111 (setting [11]); 0.1 µg/mL in the assay on Escherichia coli 0-111 (setting [12]); over 1 µg/mL in assay [2] (setting [9]); 1 µg/mL in assay [2] (setting [10]). Further, the “Growth inhibiting Concentration” value came to 1 µg/mL in assay [2] (setting [11]) and 0.1 µg/mL in assay [2] (setting [12]).
Consider `C[C@H](CCC(=O)O)[C@H]1CC[C@H]2[C@@H]3[C@H](O)C[C@@H]4C[C@H](O)CC[C@]4(C)[C@H]3C[C@H](O)[C@]12C` [cholic acid, Cholic Acid], for which, in assay [3] (Test 22: peptide 0, 1-monolauroyl-rac-glycerol 0, cholic acid 1 mg/ml), the survival rate was 92%. Also, in assay [3], the “antimicrobial activity of the compound added without antimicrobial peptide or lactoferrin hydrolysate (in words)” value is “no antimicrobial activity was observed” and the “effect of the coexisting compound on the antimicrobial activity of the antimicrobial peptide (in words)” value was “further augments the antimicrobiaI activity of the peptide”. In addition, the “effect of the coexisting compound on the antimicrobial activity of the lactoferrin hydrolysate (in words)” value in assay [3] (with lactoferrin hydrolysate 1) is recorded as “augments the antimicrobial activity of the lactoferrin hydrolysate 1”.
`CN(C)c1ccc(O)c2c1C[C@H]1C[C@H]3[C@H](N(C)C)C(O)=C(C(N)=O)C(=O)[C@@]3(O)C(O)=C1C2=O` [minomycin]: the survival rate in assay [4] (Test 24: peptide 0, minomycin 10 μg/ml) is recorded as 32%; in assay [4] (Test 24: peptide 0, minomycin 50 μg/ml), 5.2%.
For `OC[C@H]1O[C@@H]2O[C@H]3[C@H](O)[C@@H](O)[C@@H](O[C@H]4[C@H](O)[C@@H](O)[C@@H](O[C@H]5[C@H](O)[C@@H](O)[C@@H](O[C@H]6[C@H](O)[C@@H](O)[C@@H](O[C@H]7[C@H](O)[C@@H](O)[C@@H](O[C@H]8[C@H](O)[C@@H](O)[C@@H](O[C@H]1[C@H](O)[C@H]2O)O[C@@H]8CO)O[C@@H]7CO)O[C@@H]6CO)O[C@@H]5CO)O[C@@H]4CO)O[C@@H]3CO` [β-cyclodextrin, β-Cyclodextrin], the survival rate is on record as 100 in assay [3] (Test 4: peptide 0, β-cyclodextrin 0.1 mg/ml); 109 in assay [3] (Test 4: peptide 0, β-cyclodextrin 1 mg/ml); 88 in assay [3] (Test 4: peptide 0, β-cyclodextrin 2.5 mg/ml). Besides, in assay [3], the “antimicrobial activity of the compound added without antimicrobial peptide or lactoferrin hydrolysate (in words)” value is “no antimicrobial activity was observed”. In addition, in assay [3], the “effect of the coexisting compound on the antimicrobial activity of the antimicrobial peptide (in words)” value was “augments the antimicrobial activity of the peptide”.
